System: emesis in the dog
Test: Emesis in the Dog (apomorphine-induced retching and vomiting)
Format: in vivo
Details: adult female dogs; test compound i.v. at the dose of 1.0 mg/kg; 5 min later subcutaneous apomorphine (0.1 mg/0.5 ml/kg); observed for 60 min
Description: Individually housed adult female dogs (8 to 15 kg) were given an i.v. injection of a solution containing a test compound. 5 Min later the emetic responses (retching and vomiting) were induced by administration of subcutaneous apomorphine (0.1 mg/0.5 ml/kg) and observed for the next 60 min. The timing and number of retches and vomits observed were recorded for each animal. An individual animal was tested with at least 10 days between experiments.

| Compound | inhibition rate of emesis in the dog [%] |
| --- | --- |
| COc1nc(OC)c(CN2C[C@@H]3CN(C(=O)CO)CCN3[C@H](C(c3ccccc3)c3ccccc3)C2)c(OC)n1.Cl.Cl [Example 1, 2-[(6R, 9aR)-6-benzhydryl-8-[(2,4,6-trimethoxy-5-pyrimidinyl)methyl]octahydro-2H-pyrazino[1,2-a]pyrazin-2-yl]-2-oxoethanol dihydrochloride] | 100 |

System: not given
Test: not given
Details: not given

| Compound | melting point |
| --- | --- |
| COc1nc(OC)c(CN2C[C@@H]3CN(C(=O)c4cccnc4)CCN3[C@H](C(c3ccccc3)c3ccccc3)C2)c(OC(C)C)n1.Cl.Cl.Cl | 143 to 147 °C |
| COc1nc(Cl)nc(OC)c1CN1C[C@@H]2CN(C(=O)CO)CCN2[C@H](C(c2ccccc2)c2ccccc2)C1.Cl.Cl | 150 to 155 °C (dec.) |
| COc1nc(C)nc(OC)c1CN1C[C@@H]2CN(C(=O)CO)CCN2[C@H](C(c2ccccc2)c2ccccc2)C1.Cl.Cl | 129 to 132 °C |
| COc1nc(OC)c(CN2C[C@@H]3CN(C(=O)CO)CCN3[C@H](C(c3ccccc3)c3ccccc3)C2)c(OC2CCC2)n1.Cl.Cl | 141 to 145 °C |
| CCOc1nc(OC)nc(OC)c1CN1C[C@@H]2CN(C(=O)CO)CCN2[C@H](C(c2ccccc2)c2ccccc2)C1.Cl.Cl | 150 to 152 °C (dec.) |
| COc1nc(OC)c(CN2C[C@@H]3CN(C(=O)CO)CCN3[C@H](C(c3ccccc3)c3ccccc3)C2)c(OC)n1.Cl.Cl [Example 1, 2-[(6R, 9aR)-6-benzhydryl-8-[(2,4,6-trimethoxy-5-pyrimidinyl)methyl]octahydro-2H-pyrazino[1,2-a]pyrazin-2-yl]-2-oxoethanol dihydrochloride] | 155 to 158 °C (dec.) |
| COc1nc(OC)c(CN2C[C@@H]3CN(C(=O)N4CCOCC4)CCN3[C@H](C(c3ccccc3)c3ccccc3)C2)c(OC)n1.Cl.Cl | 139 to 143 °C |
| COc1nc(Cl)c(CN2C[C@@H]3CN(C(=O)CO)CCN3[C@H](C(c3ccccc3)c3ccccc3)C2)c(OC)n1.Cl.Cl | 98 to 101 °C (dec.) |
| COc1nc(C)c(CN2C[C@@H]3CN(C(=O)CO)CCN3[C@H](C(c3ccccc3)c3ccccc3)C2)c(OC)n1.Cl.Cl | 174 to 177 °C |
| COc1nc(OC)c(CN2C[C@@H]3CN(C(=O)CO)CCN3[C@H](C(c3ccccc3)c3ccccc3)C2)c(OCC(F)F)n1.Cl.Cl | 143 to 146 °C |
| COc1nc(OC)c(CN2C[C@@H]3CN(C(=O)CO)CCN3[C@H](C(c3ccccc3)c3ccccc3)C2)c(OC(C)C)n1.Cl.Cl | 145 to 148 °C (dec.) |

From patent publication US20050171350A1, “Benzhydryl derivatives” (Fujisawa Pharamaceutical Co., Ltd., priority 2001, published 2005)
